Paper PMC11078216, “Discovery of potent and selective activity-based probes (ABPs) for the deubiquitinating enzyme USP30” (RSC Chemical Biology, 2024)
One block for each molecule: values may come before it.

How the values were obtained:
DESI1 = biological target: T1, DESI1 (Homo sapiens, UniProt Q6ICB0); test: ABPP chemical proteomics (LC-MS/MS) in HEK293T cells; type: cell-based
T1 construct: endogenous in cells; host or cells: HEK293T
T1 sequence (Q6ICB0 1-168): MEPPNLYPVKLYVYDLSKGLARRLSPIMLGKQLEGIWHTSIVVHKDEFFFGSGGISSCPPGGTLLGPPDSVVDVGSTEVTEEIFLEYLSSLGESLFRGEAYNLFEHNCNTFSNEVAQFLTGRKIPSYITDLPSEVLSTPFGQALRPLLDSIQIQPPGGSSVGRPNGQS
Method in brief: (§1)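 Cellular target engagement was assessed by probe competition. Labelled HEK293T lysates (≥400 µg protein) underwent copper-catalysed click ligation for 1 h at room temperature. Biotinylated proteins were pulled down on NeutrAvidin agarose in 0.2% SDS/HEPES pH 8.0 for 3 h before LC-MS/MS quantification.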

ALDH2 = biological target: T2, ALDH2 (Homo sapiens, UniProt P05091); test: as above; type: cell-based
T2 construct: endogenous in cells; host or cells: HEK293T
T2 sequence (P05091 18-517): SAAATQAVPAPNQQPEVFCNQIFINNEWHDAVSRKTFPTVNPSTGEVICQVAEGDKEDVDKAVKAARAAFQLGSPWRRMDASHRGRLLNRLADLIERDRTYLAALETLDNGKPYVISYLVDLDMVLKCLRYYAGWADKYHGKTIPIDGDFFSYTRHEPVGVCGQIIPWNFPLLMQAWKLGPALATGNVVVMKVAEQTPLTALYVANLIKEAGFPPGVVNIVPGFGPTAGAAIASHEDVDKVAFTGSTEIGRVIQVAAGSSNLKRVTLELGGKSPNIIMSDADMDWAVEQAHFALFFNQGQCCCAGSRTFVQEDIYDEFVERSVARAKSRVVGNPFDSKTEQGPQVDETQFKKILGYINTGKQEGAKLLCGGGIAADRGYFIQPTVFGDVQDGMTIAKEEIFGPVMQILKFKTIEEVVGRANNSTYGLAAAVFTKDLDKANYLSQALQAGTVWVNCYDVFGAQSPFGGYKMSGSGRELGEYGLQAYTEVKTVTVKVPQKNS
Method in brief: as §1

[1] = IMP-2586 labelling vs DMSO, 30 nM, 10 min, HEK293T (Table S4, Fig.5c)
[2] = IMP-2587 labelling vs DMSO, 30 nM, 10 min, HEK293T (Table S2, Fig.5a)
[3] = compound 1 out-competition with IMP-2587 labelling, HEK293T (Table S3, Fig.5b)
[4] = compound 3 out-competition with IMP-2586 labelling, HEK293T (Table S5, Fig.5d)

SMILES: N#CN1CC[C@@H](NC(=O)c2cc(-c3ccccc3Oc3ccc(N=[N+]=[N-])cc3)n[nH]2)C1 [IMP-2586]
- Difference (log2 fold change of enrichment) (DESI1; [1]): 3.04
- Difference (log2 fold change of enrichment) (ALDH2; [1]): 2.13

SMILES: C#Cc1cccc(-c2cc(NC(=O)CC3CCN(C#N)C3)on2)c1 (centres unmarked) [IMP-2587]
- Difference (log2 fold change of enrichment) (DESI1; [2]): 3.61
- Difference (log2 fold change of enrichment) (ALDH2; [2]): 3.49

- Difference (log2 fold change of enrichment) (DESI1; [3]): -3.45
- Difference (log2 fold change of enrichment) (ALDH2; [3]): -3.07
SMILES: N#CN1CC[C@H](CC(=O)Nc2cc(-c3cccc(Cl)c3)no2)C1 [compound 1, reference compound]

- Difference (log2 fold change of enrichment) (DESI1; [4]): -2.81
- Difference (log2 fold change of enrichment) (ALDH2; [4]): -1.64
SMILES: N#CN1CC[C@@H](NC(=O)c2cc(-c3ccccc3Oc3ccccc3)n[nH]2)C1 [compound 3, reference compound]
